{
  "source": "patent US4977180A",
  "about": "“Novel prolinal derivatives” (Ono Pharmaceutical Co., Ltd., priority 1987, dated 1990)",
  "note": "Where a SMILES comes first, the peptide text is derived from it. [ ]: non-standard residue; d: D form. The star is where a group is joined. ξ: configuration not given here. Cbz = O=C(OCc1ccccc1)*; ξP = O=C(O)C1CCCN1; CH2Cl = ClC*",
  "data": [
    {"test_system": "prolyl endopeptidase", "test": "not given", "conditions": "in words; J. Neurochem., 41, 69 (1983); cited from earlier work", "values": [
      {"smiles": "O=CC1CCCN1C(=O)[C@@H]1CCCN1C(=O)OCc1ccccc1", "note": "(stereo partly drawn) [N-benzyloxycarbonyl-L-propyl-prolinal] (Cbz-Pro-[ξP]-aldehyde)", "inhibits prolyl endopeptidase": "strongly inhibits prolyl endopeptidase"},
      {"smiles": "O=C(NCC(=O)N1CCC[C@H]1C(=O)CCl)OCc1ccccc1", "note": "[N-benzyloxycarbonyl-glycyl-L-prolyl-chloromethane] (Cbz-Gly-Pro-CH2Cl)", "inhibits prolyl endopeptidase": "strongly inhibits prolyl endopeptidase"}
    ]},
    {"biological_target": "T1, prolyl endopeptidase (Bos taurus, UniProt Q9XTA2)", "T1 construct": "prolyl endopeptidase which was purified from bovine brain; from tissue; host or cells: bovine brain", "T1 sequence (Q9XTA2 whole entry)": "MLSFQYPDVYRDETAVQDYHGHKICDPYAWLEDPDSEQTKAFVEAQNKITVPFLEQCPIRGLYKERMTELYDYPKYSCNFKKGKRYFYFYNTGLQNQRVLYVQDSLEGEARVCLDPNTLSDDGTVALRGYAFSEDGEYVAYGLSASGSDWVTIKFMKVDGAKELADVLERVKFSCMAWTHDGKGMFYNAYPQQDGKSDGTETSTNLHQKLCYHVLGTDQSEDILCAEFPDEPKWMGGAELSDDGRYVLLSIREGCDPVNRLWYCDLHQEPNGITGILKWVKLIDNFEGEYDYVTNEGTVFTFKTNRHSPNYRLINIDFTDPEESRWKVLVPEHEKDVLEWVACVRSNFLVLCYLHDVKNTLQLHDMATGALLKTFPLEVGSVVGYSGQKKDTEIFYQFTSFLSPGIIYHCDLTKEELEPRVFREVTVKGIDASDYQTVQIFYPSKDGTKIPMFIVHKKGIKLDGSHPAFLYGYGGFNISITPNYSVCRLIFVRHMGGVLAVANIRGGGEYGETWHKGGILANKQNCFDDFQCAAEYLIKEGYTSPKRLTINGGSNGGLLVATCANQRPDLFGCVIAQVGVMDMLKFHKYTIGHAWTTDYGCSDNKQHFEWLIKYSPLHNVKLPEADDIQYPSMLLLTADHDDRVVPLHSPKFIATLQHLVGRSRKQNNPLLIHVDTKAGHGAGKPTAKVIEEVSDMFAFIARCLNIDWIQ", "test": "Prolyl endopeptidase inhibitory activity in vitro", "assay_type": "biochemical", "conditions": "prolyl endopeptidase purified from bovine brain, pH 7.5, 37° C., substrate N-benzyloxycarbonyl-glycyl-prolyl-p-nitroanilide, 30 mins' incubation, read-out: Concentration for 50% inhibition IC50", "method": "Inhibitory activity of prolyl endopeptidase in vitro was measured by the following test system.\nA mixed solution of 20 mM tris-HCl buffer (pH 7.5; 935 μl; containing 10 mM EDTA and 10 mM mercaptoethanol), a solution of a compound of the present invention in DMSO (10 μl) and a solution of prolyl endopeptidase which was purified from bovine brain (0.13 unit; prepared by the method described in J. Biochem., 94, 1179 (1983)) in tris-HCl buffer (15 μl) was preincubated for 15 mins at 37° C.\nTo the solution, 5 mM of N-benzyloxycarbonyl-glycyl-prolyl-p-nitroanilide (40 μl) in a mixture of 40% dioxane-60% water was added. The solution was incubated for 1 min at the same temperature.\nOptical absorption (a1) at 405 nm of the solution, and optical absorption (a2) at 405 nm of the solution after 30 mins' further incubation at 37° C. were measured.\nOptical absorptions (b1 and b2) of the solutions using DMSO instead of the solution of the compound of the present invention were also measured.\nInhibitory ratio was calculated by the following expression and IC50 (required concentration for 50% inhibition) was obtained (See Protein, Nucleic acid and Enzyme 25(6), 513, 1980.). [formula]", "units": {"IC50": "nM"}, "values": [
      {"smiles": "O=C[C@@H]1CCCN1C(=O)[C@@H]1CCC[C@H]1C(=O)CCc1ccccc1", "note": "(mixture of isomers) [1 (b), N-[trans-2-(3-phenylpropanoyl)cyclopentanecarbonyl]-L-prolinal]", "IC50": 14},
      {"smiles": "O=C[C@@H]1CCCN1C(=O)[C@@H]1CCCC[C@H]1C(=O)CCc1ccccc1", "note": "(mixture of isomers) [1 (c), N-[trans-2-(3-phenylpropanoyl)cyclohexanecarbonyl]-L-prolinal]", "IC50": 24},
      {"smiles": "O=C[C@@H]1CCCN1C(=O)CCC(=O)CCc1ccccc1", "note": "[1 (a), N-(6-phenyl-4-oxohexanoyl) L-prolinal]", "IC50": 120},
      {"smiles": "CC(C)C(C(=O)CCCCc1ccccc1)C(=O)N1CCC[C@H]1C=O", "note": "(stereo partly drawn) [1 (d), N-(2RS-isopropyl-3-oxo-7-phenylheptanoyl)-L-prolinal]", "IC50": 150},
      {"smiles": "O=C[C@@H]1CCCN1C(=O)CCC(=O)CCc1cccc(Cl)c1", "note": "[1 (e), N-[6-(3-chlorophenyl)-4-oxohexanoyl]-L-prolinal]", "IC50": 50},
      {"smiles": "O=C[C@@H]1CCCN1C(=O)CCC(=O)CCCCc1ccccc1", "note": "[1 (f), N-(4-oxo-8-phenyloctanoyl)-L-prolinal]", "IC50": 62},
      {"smiles": "COc1ccc(CCC(=O)CCC(=O)N2CCC[C@H]2C=O)cc1", "note": "[1 (g), N-[6-(4-methoxyphenyl)-4-oxohexanoyl]-L-prolinal]", "IC50": 84},
      {"smiles": "O=C[C@@H]1CCCN1C(=O)CCC(=O)CCc1ccc(Cl)cc1", "note": "[1 (h), N-[6-(4-chlorophenyl)-4-oxohexanoyl]-L-prolinal]", "IC50": 29},
      {"smiles": "Cc1ccc(CCC(=O)CCC(=O)N2CCC[C@H]2C=O)cc1", "note": "[1 (i), N-[6-(4-methylphenyl)-4-oxohexanoyl]-L-prolinal]", "IC50": 11},
      {"smiles": "O=C[C@@H]1CCCN1C(=O)CCC(=O)CCCc1ccccc1[N+](=O)[O-]", "note": "[1 (j), N-[7-(2-nitrophenyl)-4-oxoheptanoyl]-L-prolinal]", "IC50": 32},
      {"smiles": "O=C[C@@H]1CCCN1C(=O)CCC(=O)CCc1cccc2ccccc12", "note": "[1 (k), N-[6-(1-naphthyl)-4-oxohexanoyl]-L-prolinal]", "IC50": 18},
      {"smiles": "O=C[C@@H]1CCCN1C(=O)CCC(=O)CCc1ccc2ccccc2c1", "note": "[1 (l), N-[6-(2-naphthyl)-4-oxohexanoyl]-L-prolinal]", "IC50": 39},
      {"smiles": "O=C[C@@H]1CCCN1C(=O)CCC(=O)CCc1ccc(C(F)(F)F)cc1", "note": "[1 (m), N-[4-oxo-6-(p-trifluoro-methylphenyl)hexanoyl]-L-prolinal]", "IC50": 15},
      {"smiles": "O=C[C@@H]1CCCN1C(=O)CCC(=O)CCCc1ccccc1", "note": "[Example 1, N-(7-phenyl-4-oxoheptanoyl)-L-prolinal]", "IC50": 27}
    ]}
  ]
}
